In ChEMBL document CHEMBL3588836, “Development of Quinoline-2,4(1H,3H)-diones as Potent and Selective Ligands of the Cannabinoid Type 2 Receptor” (J Med Chem, 2015):

Experiments:
CHO [1] = assay: Selectivity index, ratio of EC50 for CB1R (unknown origin) CHO cells stably expressing Galpha16 to EC50 for CB2R (unknown origin) CHO cells stably expressing Galpha16; format: cell-based; conditions: Homo sapiens
Cannabinoid receptor 2 [2] = molecular target: T1, Cannabinoid receptor 2 (Homo sapiens, UniProt P34972); assay: Agonist activity at CB2R (unknown origin) CHO cells stably expressing Galpha16 assessed as increase in intracellular calcium level by microplate reader based assay; format: functional, cell-based
Cannabinoid receptor 1 [3] = molecular target: T2, Cannabinoid receptor 1 (Homo sapiens, UniProt P21554); assay: Agonist activity at CB1R (unknown origin) CHO cells stably expressing Galpha16 assessed as increase in intracellular calcium level by microplate reader based assay; format: functional, cell-based
Cannabinoid receptor 2 [4] = molecular target: T1, Cannabinoid receptor 2; assay: Agonist activity at CB2R (unknown origin) CHO cells stably expressing Galpha16 assessed as increase in intracellular calcium level by microplate reader based assay relative to CP55940; format: functional, cell-based
Cannabinoid receptor 1 [5] = molecular target: T2, Cannabinoid receptor 1; format: functional, cell-based, CHO
CHO [6] = assay: Selectivity index, ratio of IC50 for CB1R (unknown origin) CHO cells stably expressing Galpha16 to IC50 for CB2R (unknown origin) CHO cells stably expressing Galpha16; format: cell-based; conditions: Homo sapiens
Cannabinoid receptor 2 [7] = molecular target: T1, Cannabinoid receptor 2; assay: Antagonist activity against CB2R (unknown origin) CHO cells stably expressing Galpha16 assessed as inhibition of CP55940-induced increase in intracellular calcium level pre-treated 10 mins before CP55940 stimulation by microplate reader based assay relative to […]; format: functional, cell-based
Cannabinoid receptor 2 [8] = molecular target: T1, Cannabinoid receptor 2; assay: Antagonist activity against CB2R (unknown origin) CHO cells stably expressing Galpha16 assessed as inhibition of CP55940-induced increase in intracellular calcium level pre-treated 10 mins before CP55940 stimulation by microplate reader based assay; format: functional, cell-based

T2 sequence (P21554 whole entry): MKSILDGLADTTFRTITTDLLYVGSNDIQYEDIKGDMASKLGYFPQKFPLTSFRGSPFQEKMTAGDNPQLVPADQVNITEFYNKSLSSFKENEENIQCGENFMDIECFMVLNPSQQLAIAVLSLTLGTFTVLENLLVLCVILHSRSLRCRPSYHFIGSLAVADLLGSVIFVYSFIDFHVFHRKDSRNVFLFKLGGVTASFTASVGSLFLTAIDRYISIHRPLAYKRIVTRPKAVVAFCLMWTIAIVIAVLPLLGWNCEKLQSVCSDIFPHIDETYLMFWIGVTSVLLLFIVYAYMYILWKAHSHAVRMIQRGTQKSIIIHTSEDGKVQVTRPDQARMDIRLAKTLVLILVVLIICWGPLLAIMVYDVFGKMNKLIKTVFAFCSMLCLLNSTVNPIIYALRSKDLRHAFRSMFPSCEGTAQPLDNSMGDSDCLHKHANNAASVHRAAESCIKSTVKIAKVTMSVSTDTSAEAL
T1 sequence (P34972 whole entry): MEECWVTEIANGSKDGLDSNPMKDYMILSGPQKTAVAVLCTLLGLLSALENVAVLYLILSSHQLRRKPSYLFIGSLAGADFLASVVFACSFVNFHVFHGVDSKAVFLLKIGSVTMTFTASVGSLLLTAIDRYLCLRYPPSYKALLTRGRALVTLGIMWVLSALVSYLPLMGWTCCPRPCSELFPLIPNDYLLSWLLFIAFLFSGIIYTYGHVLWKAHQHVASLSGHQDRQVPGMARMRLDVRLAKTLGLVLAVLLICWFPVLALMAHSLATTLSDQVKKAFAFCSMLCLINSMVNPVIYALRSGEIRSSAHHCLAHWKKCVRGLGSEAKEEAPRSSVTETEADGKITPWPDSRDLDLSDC

Row | Structure (SMILES) | Ratio EC50 (CHO [1]) | EC50 (Cannabinoid receptor 2 [2]; read-out: EC50) [nM] | EC50 (Cannabinoid receptor 2 [2]; read-out: pEC50 (converted)) [nM] | EC50 (Cannabinoid receptor 1 [3]) [nM] | Emax (Cannabinoid receptor 2 [4]) [%] | IC50 (Cannabinoid receptor 1 [5]) [nM] | Ratio IC50 (CHO [6]) | Emax (Cannabinoid receptor 2 [7]) [%] | IC50 (Cannabinoid receptor 2 [8]) [nM]
1 | CCCCN1C(=O)/C(=C/NC(C)(C)CC)C(=O)c2cccc(C)c21 | 26.8 | 75.3 | 75 | 2020 | 158 | – | – | – | –
2 | CCCCN1C(=O)/C(=C/NC(CC)CC)C(=O)c2cccc(C)c21 | > 88.5 | 113 | 112 | > 10000 | 137 | – | – | – | –
3 | CCCCCN1C(=O)/C(=C/NC23CC4CC(CC(C4)C2)C3)C(=O)c2cc(Cl)ccc21 | – | – | – | – | – | > 10000 | > 10.4 | 100 | 957
4 | CCCCN1C(=O)/C(=C/NC2CCCCC2)C(=O)c2ccccc21 | > 6.33 | 1580 | – | > 10000 | 185 | – | – | – | –
5 | O=C(NCC1CCOCC1)c1cnc(Nc2ccc(Cl)cc2Cl)nc1C(F)(F)F [GW842166X] | > 22.9 | 437 | – | > 10000 | 91.6 | – | – | – | –
6 | CCCCCCN1C(=O)/C(=C/NC2CCCCC2)C(=O)c2cc(OC)ccc21 | – | – | – | – | – | > 10000 | – | – | > 10000
7 | CCCCCN1C(=O)/C(=C/NC2CCCCC2)C(=O)c2cc(OC(F)(F)F)ccc21 | – | – | – | – | – | > 10000 | – | – | > 10000
8 | CCCCN1C(=O)/C(=C/Nc2ccc(F)cc2)C(=O)c2cccc(C)c21 | – | > 10000 | – | > 10000 | – | – | – | – | –
9 | CCCCN1C(=O)/C(=C/NCCC)C(=O)c2cccc(C)c21 | – | > 10000 | – | > 10000 | – | – | – | – | –
10 | Cc1c(C(=O)NN2CCCCC2)nn(-c2ccc(Cl)cc2Cl)c1-c1ccc(Cl)cc1 | – | – | – | – | – | – | – | 100 | –
11 | CCCCN1C(=O)/C(=C/NC(C)(C)CO)C(=O)c2cccc(C)c21 | 13.5 | 41.3 | 41 | 557 | 127 | – | – | – | –
12 | CCCCN1C(=O)/C(=C/NC2CCCCC2)C(=O)c2cccc(Cl)c21 | – | > 10000 | – | > 10000 | – | – | – | – | –
13 | CCCCN1C(=O)/C(=C/NC23CC4CC(CC(C4)C2)C3)C(=O)c2cccc(C)c21 | > 31.5 | 317 | – | > 10000 | 137 | – | – | – | –
14 | CCCCN1C(=O)/C(=C/NC(C)C(C)C)C(=O)c2cccc(C)c21 (centres undefined) | > 121 | 82.7 | 83 | > 10000 | 120 | – | – | – | –
15 | CCCCN1C(=O)/C(=C/NCC2CC2)C(=O)c2cccc(C)c21 | > 78.7 | 127 | – | > 10000 | 43.4 | – | – | – | –
16 | CCCCN1C(=O)/C(=C/NC2CC2)C(=O)c2cccc(C)c21 | > 19.9 | 503 | – | > 10000 | 81.8 | – | – | – | –
17 | CCCCN1C(=O)/C(=C/Nc2ccccn2)C(=O)c2cccc(C)c21 | > 4.18 | 2390 | – | > 10000 | 47.2 | – | – | – | –
18 | CCCN1C(=O)/C(=C/NC(C)(C)C)C(=O)c2cccc(C)c21 | > 275 | 36.3 | – | > 10000 | 126 | – | – | – | –
19 | CCCCCN1C(=O)/C(=C/NC2CCCCC2)C(=O)c2ccc(C)cc21 | – | – | – | – | – | > 10000 | > 1110 | 96.3 | 9.03
20 | C=CCCN1C(=O)/C(=C/NC2CCCCC2)C(=O)c2cccc(C)c21 | > 13.4 | 749 | – | > 10000 | 135 | – | – | – | –
21 | CCCCCN1C(=O)/C(=C/NC2CCCCC2)C(=O)c2ccc(Cl)cc21 | – | – | – | – | – | > 10000 | – | – | > 10000
22 | CCCCCN1C(=O)/C(=C/NC2CCCCC2)C(=O)c2cc(C(C)(C)C)ccc21 | – | – | – | – | – | > 10000 | – | – | > 10000
23 | Cc1cccc2c1N(CC1CC1)C(=O)/C(=C/NC(C)(C)C)C2=O | > 96.2 | 104 | – | > 10000 | 140 | – | – | – | –
24 | CCCCN1C(=O)/C(=C/NC2CCCCC2)C(=O)c2cccc(OC)c21 | > 7.04 | 1420 | – | > 10000 | 86.1 | – | – | – | –
25 | CCCCN1C(=O)/C(=C/NC(C)C)C(=O)c2cccc(C)c21 | – | > 10000 | – | > 10000 | – | – | – | – | –
26 | CCN1C(=O)/C(=C/NC2CCCCC2)C(=O)c2cccc(C)c21 | > 0.559 | 17900 | – | > 10000 | 95 | – | – | – | –
27 | CCCCCN1C(=O)/C(=C/NC2CCCCC2)C(=O)c2c(OC)cccc21 | – | > 10000 | – | > 10000 | – | – | – | – | –
28 | CCCCN1C(=O)/C(=C/NC2CCCCC2)C(=O)c2cccc(CC)c21 | > 12.5 | 797 | 800 | > 10000 | 86.9 | – | – | – | –
29 | CCCCCN1C(=O)/C(=C/NC23CC4CC(CC(C4)C2)C3)C(=O)c2cc(OC)cc(C)c21 | – | – | – | – | – | > 10000 | > 221 | 102 | 45.3
30 | C=CCCN1C(=O)/C(=C/NC(C)(C)C)C(=O)c2cccc(C)c21 | > 133 | 75.3 | – | > 10000 | 92.6 | – | – | – | –
